Measured values taken from paper PMC6411103, “TAK-071, a muscarinic M1 receptor positive allosteric modulator, attenuates scopolamine-induced quantitative electroencephalogram power spectral changes in cynomolgus monkeys” (PLoS ONE, 2019).
Where a name gives a salt, the structure may show the parent alone. Read-outs that look alike come from different tables or passages of the source.

What was measured:
[1] = set-up: method as in PMID 26116126; conditions: direct radiolabeling; cited from earlier work
[2] = set-up: method as in PMID 29563325; conditions: cited from earlier work
[3] = tested on: cynomolgus monkeys; assay: qEEG power spectra after treatment with drug alone (radio-telemetry EEG); type: in vivo, cynomolgus monkeys (Macaca fascicularis)
Method: (§1) Implant surgery was carried out at Hamri Company Limited (Ibaraki, Japan). Briefly, under isoflurane anesthesia (1–5%, Pfizer Japan Inc., Tokyo, Japan), male cynomolgus monkeys (3–5 years old, Hamri Co., Ltd., Ibaraki, Japan) were surgically implanted with radio-telemetry transmitters (TL10M3-D70-EEE, Data Sciences International Inc., St. Paul, MN). EEG leads were stereotaxically positioned in the parietal area and secured to the cranium with stainless-steel screws in contact with the dura. […] Bilateral electromyography (EMG) leads were implanted in the back cervical muscles. After surgery, each monkey was administered penicillin (100,000 units/animal, i.m., Meiji Seika Pharma Co., Ltd., Tokyo, Japan), buprenorphine (0.02 mg/kg, i.m., Otsuka Pharmaceutical Co., Ltd., Tokyo, Japan), and prednisolone (1 mg/kg, subcutaneously [s.c.], Kyoritsu Seiyaku Co., Ltd., Tokyo, Japan) daily for one week.
(§2) TAK-071, 4-fluoro-2-[(3S,4S)-4-hydroxytetrahydro-2H-pyran-3-yl]-5-methyl-6-[4-(1H-pyrazol-1-yl)benzyl]-2,3-dihydro-1H-isoindol-1-one, was synthesized by Takeda Pharmaceutical Company Limited (Kanagawa, Japan). Donepezil hydrochloride and xanomeline oxalate were purchased from Mega Fine Pharma (P) Limited (Mumbai, India) and Metina AB (Lund, Sweden), respectively. […] TAK-071 and donepezil hydrochloride were suspended in 0.5% (w/v) methylcellulose in distilled water and the volume of administration was 2 mL/kg orally (p.o.). […] The doses of compounds correspond to their salt forms. The administration was scheduled according to a 3×3 cross-over design.
(§3) After at least a 1-month recovery period in their home cages, the monkeys were habituated to the recording chamber (acrylic cage, 60 × 55 × 75 [cm^3 width × depth × height]) located in a soundproof, electrically shielded room. Cortical EEG, EMG, and EOG signals were recorded at a sampling rate of 500 Hz using Dataquest ART software (Data Sciences International, New Brighton, MN). The behavioral and postural changes of the animals were observed using a video camera continuously throughout the experiment. The recordings were performed between 9 a.m. and 4 p.m..
(§4) EEG data were analyzed off-line using SleepSign (KISSEI COMTEC Co., Ltd., Nagano, Japan). Digitized EEG signals were high-pass filtered with a 0.75-Hz filter. Spectral power densities for each frequency band were calculated by fast Fourier transform in consecutive 10-s epochs. Epochs containing abnormal EEG, defined by excessive amplitude (> 500 μV), were omitted from data analysis. For analysis of temporal changes in a specific spectral band (1–4 Hz for delta, 4–8 Hz for theta, 8–12 Hz for alpha, 12–30 Hz for beta, 30–80 Hz for gamma), the EEG power of each spectral band was calculated every 15 min. For each animal, the qEEG spectral analyses were performed from 30 to 240 min after treatment because oral and subcutaneous administration of drugs to monkeys can affect the qEEG power spectra. Data obtained in the post-drug period were normalized with those obtained in the baseline period and were calculated as the area under the curve (AUC) between 30 and 210 min after drug administration for quantitative analyses.

[4] = tested on: cynomolgus monkeys; assay: scopolamine-induced qEEG spectral changes (scopolamine challenge paradigm); type: in vivo, cynomolgus monkeys (Macaca fascicularis)
Method: as §1, §2, §3, §4

[5] = tested on: rats; set-up: method as in PMID 30089885; conditions: TAK-071 0.3 mg/kg; cited from earlier work
[6] = set-up: method as in PMID 30089885; conditions: rats, TAK-071 0.3 mg/kg; cited from earlier work
[7] = tested on: M1R; set-up: method as in PMID 30089885; conditions: previous study; cited from earlier work
[8] = tested on: monkeys; conditions: cited from earlier work
[9] = tested on: freely moving rats; set-up: method as in PMID 25181033, PMID 26901596; conditions: cited from earlier work
[10] = tested on: patients with AD; set-up: method as in PMID 14626697; conditions: cited from earlier work
[11] = tested on: healthy young volunteers; set-up: method as in PMID 1375552; conditions: cited from earlier work
[12] = tested on: monkeys; set-up: method as in PMID 17657478, PMID 25491927; conditions: scopolamine 20–50 μg/kg; cited from earlier work
[13] = tested on: healthy subjects; conditions: healthy subjects after scopolamine treatment; cited from earlier work
[14] = tested on: monkeys; conditions: xanomeline 1 mg/kg subcutaneous; cited from earlier work
[15] = TAK-071 3 mg/kg p.o. simultaneously with scopolamine 25 μg/kg s.c., P ≤ 0.05
[16] = donepezil alone, 0.3 and 3 mg/kg p.o.
[17] = donepezil 3 mg/kg p.o. simultaneously with scopolamine 25 μg/kg s.c.
[18] = xanomeline 1 mg/kg s.c. simultaneously with scopolamine 25 μg/kg s.c., not statistically significant

Cc1cc(F)c2[nH]c(=O)n(C3CCN(C4CCOCC4)CC3)c2c1 [GSK1034702]
brain uptake by PET [1]: good brain uptake

Cc1ccc(Cc2cc3c(=O)n([C@H]4CCCC[C@@H]4O)cnc3c3ccccc23)cn1 [MK-7622]
alpha power band [2]: reductions | theta power band [2]: reductions

Cc1c(Cc2ccc(-n3cccn3)cc2)cc2c(c1F)CN([C@H]1COCC[C@@H]1O)C2=O [TAK-071, 4-fluoro-2-[(3S,4S)-4-hydroxytetrahydro-2H-pyran-3-yl]-5-methyl-6-[4-(1H-pyrazol-1-yl)benzyl]-2,3-dihydro-1H-isoindol-1-one]
theta power band of qEEG spectra ([3]; TAK-071 alone, 1 mg/kg p.o., P ≤ 0.05 vs vehicle): significantly decreased | delta power band of qEEG spectra ([3]; TAK-071 alone, 0.3–3 mg/kg p.o.): did not change | alpha power band of qEEG spectra ([3]; TAK-071 alone, 1 and 3 mg/kg p.o., P ≤ 0.05 vs vehicle): significantly decreased | scopolamine-induced increase in alpha power band ([4]; TAK-071 1 mg/kg p.o. simultaneously with scopolamine 25 μg/kg s.c., P ≤ 0.05): significantly reduced | scopolamine-induced increase in alpha power band [4, 15]: significantly suppressed | scopolamine-induced increase in theta power band [4, 15]: significantly suppressed | scopolamine-induced increase in delta power band ([4]; TAK-071 1 and 3 mg/kg p.o. simultaneously with scopolamine 25 μg/kg s.c., no significant effect): a decreasing trend was observed | scopolamine-induced cognitive deficits [5]: significantly ameliorated | maximum plasma concentration [6]: 232 ng/mL | selectivity as M1 PAM [7]: highly selective M1 PAM

COc1cc2c(cc1OC)C(=O)C(CC1CCN(Cc3ccccc3)CC1)C2 (centres unmarked) [donepezil, Donepezil hydrochloride]
alpha power band of qEEG spectra ([3]; donepezil alone, 0.3 mg/kg p.o., dose-dependency not observed): increased | delta power band of qEEG spectra [3, 16]: did not affect | theta power band of qEEG spectra [3, 16]: did not affect | scopolamine-induced increase in alpha power band [4, 17]: tended to be attenuated | scopolamine-induced increase in theta power band [4, 17]: tended to be attenuated | scopolamine-induced increase in delta power band ([4]; donepezil 3 mg/kg p.o. simultaneously with scopolamine 25 μg/kg s.c., P ≤ 0.05 vs scopolamine): significantly suppressed | scopolamine-induced cognitive deficits ([8]; oral administration of 3 mg/kg donepezil): improved | scopolamine-induced cognitive deficits ([8]; oral donepezil 1–3 mg/kg): significantly attenuated | delta power band after treatment with scopolamine [9]: decreased | alpha activity [10]: increased | beta activity [10]: increased | delta activity [10]: significantly decreased

COc1ccc2c3c1O[C@H]1C[C@@H](O)C=C[C@@]31CCN(C)C2 [galantamine]
theta power band [11]: did not change

CCN(C)C(=O)Oc1cccc([C@H](C)N(C)C)c1 [rivastigmine]
delta power band after treatment with scopolamine [9]: decreased

CN1[C@@H]2C[C@@H](OC(=O)[C@H](CO)c3ccccc3)C[C@H]1[C@@H]1O[C@@H]12 [scopolamine, Scopolamine hydrobromide]
alpha, theta, and delta power bands, dose-dependency ([3]; scopolamine 25, 50, or 100 μg/kg s.c.): increased alpha, theta, and delta power bands in a dose-dependent manner | persistence of effects in all power bands after treatment ([3]; scopolamine 25-100 μg/kg s.c.): 240 min | cognitive impairment [12]: moderately caused cognitive impairment | alpha power band, resting state [13]: decrease | delta power band, resting state [13]: increase

Nc1c2c(nc3ccccc13)CCCC2 [tacrine]
delta power band after treatment with scopolamine [9]: decreased

CCCCCCOc1nsnc1C1=CCCN(C)C1 [xanomeline, xanomeline oxalate]
scopolamine-induced increase in alpha power band [4, 18]: showed a trend to suppress | scopolamine-induced increase in delta power band [4, 18]: showed a trend to suppress | scopolamine-induced increase in theta power band [4, 18]: showed a trend to suppress | scopolamine-induced cognitive deficits ([8]; intramuscular administration of 0.1 mg/kg xanomeline): improved | antipsychotic-like activity and sedative effects [14]: exhibited antipsychotic-like activity without inducing sedative effects
